What follows are molecules tested against T1, MLL1 (Trimeric) (Homo sapiens, UniProt Q03164) (assay: Methyl transferase scintillation proximity assay). Settings: 10µM; average of two measurements.
T1 construct: purchased DiscoverX BROMOscan (bromodomains); SGC in-house methyltransferase panel
Type: biochemical
Method: (§1) Assays measuring lysine and arginine methyl transferase activity have been described in Scheer et al.. A radioactivity-based scintillation proximity assay was used to monitor incorporation of a tritium-labeled methyl group into the biotinylated substrate of the methyl transferase. A 10-μl reaction containing ^3H-SAM and substrate at concentrations close to the apparent Km values for each enzyme was prepared. The reactions were quenched with 10 μl of 7.5 M guanidine hydrochloride; 180 μl of 20 mM Tris buffer (pH 8.0) were added; and the mixture was transferred to a 96-well FlashPlate and incubated for 1 h. The counts per minute (CPM) was measured on a TopCount plate reader. The CPM in the absence of compound or enzyme was defined as 100% activity and background (0%), respectively, for each dataset.

Compound	MTases Inhibition (%)
COc1ccccc1C(=O)Nc1cc2c(cc1N1CCNC[C@H]1C)n(C)c(=O)n2C [GSK6853]	7

Same assay, conditions: average of two measurements, read-out: MTases Inhibition (%)

Compound	inhibition at 10 µM [%]
CN1C[C@H](Nc2cnn(C)c(=O)c2Br)C[C@H](c2ccccc2)C1 [GSK4027]	8
COc1cc(Cl)c(C(=O)N[C@@H](CN[C@H]2CC[C@@H](N)CC2)Cc2ccc(C#N)cc2)cc1-c1ccc(CN[C@H](C)c2ccc(C)cc2)o1 [BAY-850]	-1
CN(C)CCCOc1ccc(-c2cc(NCCCn3cccn3)nc(S(C)(=O)=O)n2)cc1 [TP-238]	17
Cc1nnc2c3ccccc3c(N[C@@H](C)[C@H](c3ccccc3)N(C)C)nn12 [L-Moses]	20
Cc1c(NC(=O)c2cc(C(N)=O)nc3cc(F)ccc23)c(C(F)(F)F)nn1Cc1ccc(C#N)cc1 [BAY-876]	11
CO[C@H]1CNC[C@@H](OCC2CCC(F)(F)CC2)[C@@H]1Nc1ncc(-c2cncc(C)c2)c2cc(C)c(=O)[nH]c12 [GSK8814]	6
Cc1c(NC(=O)c2cc(C(N)=O)nc3cc(F)ccc23)c(C(F)(F)F)nn1Cc1ccc(C(C)(C)C)cc1 [BAY-588]	7

Each molecule was assayed against T2, SETDB1 (Homo sapiens, UniProt Q15047) (assay: Methyl transferase scintillation proximity assay). Settings: 10µM; average of two measurements.
T2 construct: purchased DiscoverX BROMOscan (bromodomains); SGC in-house methyltransferase panel
Type: biochemical
Method: as §1

Compound	MTases Inhibition (%)
COc1ccccc1C(=O)Nc1cc2c(cc1N1CCNC[C@H]1C)n(C)c(=O)n2C [GSK6853]	1

Same assay, conditions: average of two measurements, read-out: MTases Inhibition (%)

Compound	inhibition at 10 µM [%]
CN1C[C@H](Nc2cnn(C)c(=O)c2Br)C[C@H](c2ccccc2)C1 [GSK4027]	-1
COc1cc(Cl)c(C(=O)N[C@@H](CN[C@H]2CC[C@@H](N)CC2)Cc2ccc(C#N)cc2)cc1-c1ccc(CN[C@H](C)c2ccc(C)cc2)o1 [BAY-850]	8
CN(C)CCCOc1ccc(-c2cc(NCCCn3cccn3)nc(S(C)(=O)=O)n2)cc1 [TP-238]	-1
Cc1nnc2c3ccccc3c(N[C@@H](C)[C@H](c3ccccc3)N(C)C)nn12 [L-Moses]	1
Cc1c(NC(=O)c2cc(C(N)=O)nc3cc(F)ccc23)c(C(F)(F)F)nn1Cc1ccc(C#N)cc1 [BAY-876]	-4
CO[C@H]1CNC[C@@H](OCC2CCC(F)(F)CC2)[C@@H]1Nc1ncc(-c2cncc(C)c2)c2cc(C)c(=O)[nH]c12 [GSK8814]	1
Cc1c(NC(=O)c2cc(C(N)=O)nc3cc(F)ccc23)c(C(F)(F)F)nn1Cc1ccc(C(C)(C)C)cc1 [BAY-588]	5

Each molecule was assayed against T3, SETD8 (Homo sapiens, UniProt Q9NQR1) (assay: Methyl transferase scintillation proximity assay). Settings: 10µM; average of two measurements.
T3 construct: purchased DiscoverX BROMOscan (bromodomains); SGC in-house methyltransferase panel
T3 sequence (Q9NQR1 1-393): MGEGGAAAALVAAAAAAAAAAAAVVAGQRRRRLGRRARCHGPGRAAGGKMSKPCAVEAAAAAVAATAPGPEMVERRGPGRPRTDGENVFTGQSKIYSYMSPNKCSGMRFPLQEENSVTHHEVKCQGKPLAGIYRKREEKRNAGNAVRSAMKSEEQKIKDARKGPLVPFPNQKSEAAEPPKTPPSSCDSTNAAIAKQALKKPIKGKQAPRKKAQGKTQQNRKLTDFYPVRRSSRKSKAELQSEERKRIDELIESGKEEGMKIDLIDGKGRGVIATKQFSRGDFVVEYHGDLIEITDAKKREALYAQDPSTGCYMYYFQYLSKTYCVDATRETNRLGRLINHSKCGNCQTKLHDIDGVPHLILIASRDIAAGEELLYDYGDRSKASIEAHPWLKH
Type: biochemical
Method: as §1

Compound	MTases Inhibition (%)
COc1ccccc1C(=O)Nc1cc2c(cc1N1CCNC[C@H]1C)n(C)c(=O)n2C [GSK6853]	-6

Same assay, conditions: average of two measurements, read-out: MTases Inhibition (%)

Compound	inhibition at 10 µM [%]
CN1C[C@H](Nc2cnn(C)c(=O)c2Br)C[C@H](c2ccccc2)C1 [GSK4027]	10
COc1cc(Cl)c(C(=O)N[C@@H](CN[C@H]2CC[C@@H](N)CC2)Cc2ccc(C#N)cc2)cc1-c1ccc(CN[C@H](C)c2ccc(C)cc2)o1 [BAY-850]	2
CN(C)CCCOc1ccc(-c2cc(NCCCn3cccn3)nc(S(C)(=O)=O)n2)cc1 [TP-238]	-6
Cc1nnc2c3ccccc3c(N[C@@H](C)[C@H](c3ccccc3)N(C)C)nn12 [L-Moses]	-8
Cc1c(NC(=O)c2cc(C(N)=O)nc3cc(F)ccc23)c(C(F)(F)F)nn1Cc1ccc(C#N)cc1 [BAY-876]	0
CO[C@H]1CNC[C@@H](OCC2CCC(F)(F)CC2)[C@@H]1Nc1ncc(-c2cncc(C)c2)c2cc(C)c(=O)[nH]c12 [GSK8814]	-7
Cc1c(NC(=O)c2cc(C(N)=O)nc3cc(F)ccc23)c(C(F)(F)F)nn1Cc1ccc(C(C)(C)C)cc1 [BAY-588]	-3

Each molecule was assayed against T4, SETD7 (Homo sapiens, UniProt Q8WTS6) (assay: Methyl transferase scintillation proximity assay). Settings: 10µM; average of two measurements.
T4 construct: purchased DiscoverX BROMOscan (bromodomains); SGC in-house methyltransferase panel
T4 sequence (Q8WTS6 1-366): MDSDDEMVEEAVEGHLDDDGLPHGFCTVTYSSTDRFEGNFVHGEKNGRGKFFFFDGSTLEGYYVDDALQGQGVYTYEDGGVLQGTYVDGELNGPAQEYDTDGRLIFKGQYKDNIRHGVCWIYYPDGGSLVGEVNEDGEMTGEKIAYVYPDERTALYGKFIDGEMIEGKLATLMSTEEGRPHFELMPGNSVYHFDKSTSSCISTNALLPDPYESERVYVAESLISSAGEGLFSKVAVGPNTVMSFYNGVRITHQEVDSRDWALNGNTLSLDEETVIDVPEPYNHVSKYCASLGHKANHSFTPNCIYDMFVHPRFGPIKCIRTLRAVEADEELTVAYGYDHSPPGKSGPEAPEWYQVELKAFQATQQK
Type: biochemical
Method: as §1

Compound	MTases Inhibition (%)
COc1ccccc1C(=O)Nc1cc2c(cc1N1CCNC[C@H]1C)n(C)c(=O)n2C [GSK6853]	7

Same assay, conditions: average of two measurements, read-out: MTases Inhibition (%)

Compound	inhibition at 10 µM [%]
CN1C[C@H](Nc2cnn(C)c(=O)c2Br)C[C@H](c2ccccc2)C1 [GSK4027]	12
COc1cc(Cl)c(C(=O)N[C@@H](CN[C@H]2CC[C@@H](N)CC2)Cc2ccc(C#N)cc2)cc1-c1ccc(CN[C@H](C)c2ccc(C)cc2)o1 [BAY-850]	11
CN(C)CCCOc1ccc(-c2cc(NCCCn3cccn3)nc(S(C)(=O)=O)n2)cc1 [TP-238]	-1
Cc1nnc2c3ccccc3c(N[C@@H](C)[C@H](c3ccccc3)N(C)C)nn12 [L-Moses]	7
Cc1c(NC(=O)c2cc(C(N)=O)nc3cc(F)ccc23)c(C(F)(F)F)nn1Cc1ccc(C#N)cc1 [BAY-876]	10
CO[C@H]1CNC[C@@H](OCC2CCC(F)(F)CC2)[C@@H]1Nc1ncc(-c2cncc(C)c2)c2cc(C)c(=O)[nH]c12 [GSK8814]	7
Cc1c(NC(=O)c2cc(C(N)=O)nc3cc(F)ccc23)c(C(F)(F)F)nn1Cc1ccc(C(C)(C)C)cc1 [BAY-588]	10

These molecules were tested against T5, PRMT7 (Homo sapiens, UniProt Q9NVM4) (assay: Methyl transferase scintillation proximity assay). Settings: 10µM; average of two measurements.
T5 construct: purchased DiscoverX BROMOscan (bromodomains); SGC in-house methyltransferase panel
T5 sequence (Q9NVM4 1-692): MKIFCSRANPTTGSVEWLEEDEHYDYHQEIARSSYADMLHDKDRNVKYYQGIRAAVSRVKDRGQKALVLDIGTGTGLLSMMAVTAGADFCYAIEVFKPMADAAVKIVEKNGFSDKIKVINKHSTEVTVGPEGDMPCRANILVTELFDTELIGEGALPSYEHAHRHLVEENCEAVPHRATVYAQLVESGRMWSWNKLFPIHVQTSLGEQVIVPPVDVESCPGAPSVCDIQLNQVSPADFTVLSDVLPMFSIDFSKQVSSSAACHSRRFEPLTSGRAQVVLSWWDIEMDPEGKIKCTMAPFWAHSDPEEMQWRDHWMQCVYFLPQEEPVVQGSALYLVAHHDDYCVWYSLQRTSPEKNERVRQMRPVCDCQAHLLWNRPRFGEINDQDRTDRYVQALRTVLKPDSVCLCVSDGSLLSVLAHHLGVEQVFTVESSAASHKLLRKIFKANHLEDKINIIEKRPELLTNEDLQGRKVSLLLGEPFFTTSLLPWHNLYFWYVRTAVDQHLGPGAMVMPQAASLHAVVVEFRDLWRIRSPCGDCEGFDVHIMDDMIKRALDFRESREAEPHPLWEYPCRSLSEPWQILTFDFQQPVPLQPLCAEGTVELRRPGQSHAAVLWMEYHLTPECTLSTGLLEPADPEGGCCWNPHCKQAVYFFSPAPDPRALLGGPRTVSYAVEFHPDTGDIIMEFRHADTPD
Type: biochemical
Method: as §1

Compound	MTases Inhibition (%)
COc1ccccc1C(=O)Nc1cc2c(cc1N1CCNC[C@H]1C)n(C)c(=O)n2C [GSK6853]	11

Same assay, conditions: average of two measurements, read-out: MTases Inhibition (%)

Compound	inhibition at 10 µM [%]
CN1C[C@H](Nc2cnn(C)c(=O)c2Br)C[C@H](c2ccccc2)C1 [GSK4027]	15
COc1cc(Cl)c(C(=O)N[C@@H](CN[C@H]2CC[C@@H](N)CC2)Cc2ccc(C#N)cc2)cc1-c1ccc(CN[C@H](C)c2ccc(C)cc2)o1 [BAY-850]	3
CN(C)CCCOc1ccc(-c2cc(NCCCn3cccn3)nc(S(C)(=O)=O)n2)cc1 [TP-238]	9
Cc1nnc2c3ccccc3c(N[C@@H](C)[C@H](c3ccccc3)N(C)C)nn12 [L-Moses]	8
Cc1c(NC(=O)c2cc(C(N)=O)nc3cc(F)ccc23)c(C(F)(F)F)nn1Cc1ccc(C#N)cc1 [BAY-876]	12
CO[C@H]1CNC[C@@H](OCC2CCC(F)(F)CC2)[C@@H]1Nc1ncc(-c2cncc(C)c2)c2cc(C)c(=O)[nH]c12 [GSK8814]	11
Cc1c(NC(=O)c2cc(C(N)=O)nc3cc(F)ccc23)c(C(F)(F)F)nn1Cc1ccc(C(C)(C)C)cc1 [BAY-588]	13

Source: article PMC6478789, “A chemical toolbox for the study of bromodomains and epigenetic signaling” (Nature Communications, 2019)
